Consider six molecules from patent US5639765A, “Guanidinoalkyl glycine β-amino acids useful for inhibiting bone loss” (G. D. Searle & Co., priority 1995, dated 1997).

Where a name gives a salt, the structure may show the parent alone.

Assay [1] concerns the target T1, Human vitronectin receptor (αv β3) (Homo sapiens, UniProt P05106+P06756).
T1 construct: purified from human placenta; from tissue; host or cells: human placenta
Kind of assay: Solid Phase Receptor Assay, purified αv β3 (vitronectin receptor) competition with biotinylated vitronectin. In kind it is binding. As to conditions: 1 nM biotinylated vitronectin, 2 h competition, room temperature, R = H, read-out: VnR/IC50. The procedure: Human vitronectin receptor(αv β3) was purified from human placenta as previously described [Pytela et al., Methods in Enzymology, 144:475-489 (1987)]. Human vitronectin was purified from fresh frozen plasma as previously described [Yatohgo et al., Cell Structure and Function, 13:281-292 (1988)]. Biotinylated human vitronectin was prepared by coupling NHS-biotin from Pierce Chemical Company (Rockford, Ill.) to purified vitronectin as previously described [Charo et al., J. Biol. Chem., 266(3):1415-1421 (1991)]. Assay buffer, OPD substrate tablets, and RIA grade BSA were obtained from Sigma (St. Louis, Mo.). Anti-biotin antibody was obtained from Calbiochem (La Jolla, Calif.). GRGDSP peptide was purchased from Bachem (Torrance, Calif.). Linbro microtiter plates were obtained from Flow Labs (McLean, Va.). ADP reagent was obtained from Sigma (St. Louis, Mo.).
This assay was essentially the same as previously reported [Niiya et al., Blood, 70:475-483 (1987)]. The purified human vitronectin receptor (αv β3) was diluted from stock solutions to 1.0 μg/mL in Tris-buffered saline containing 1.0 mM Ca^++, Mg^++, and Mn^++, pH 7.4 (TBS^+++). The diluted receptor was immediately transferred to Linbro microtiter plates at 100 μL/well (100 ng receptor/well). The plates were sealed and incubated overnight at 4° C. to allow the receptor to bind to the wells. All remaining steps were at room temperature. The assay plates were emptied and 200 μL of 1% RIA grade BSA in TBS^+++ (TBS^+++ /BSA) were added to block exposed plastic surfaces. Following a 2 hour incubation, the assay plates were washed with TBS^+++ using a 96 well plate washer. Logarithmic serial dilution of the test compound and controls were made starting at a stock concentration of 2 mM and using 2 nM biotinylated vitronectin in TBS^+++ /BSA as the diluent. This premixing of labeled ligand with test (or control) ligand, and subsequent transfer of 50 μL aliquots to the assay plate was carried out with a CETUS Propette robot; the final concentration of the labeled ligand was 1 nM and the highest concentration of test compound was 1.0×10^-4 M. The competition occurred for two hours after which all wells were washed with a plate washer as before. Affinity purified horseradish peroxidase labeled goat anti-biotin antibody was diluted 1:3000 in TBS^+++ /BSA and 125 μL were added to each well. After 30 minutes, the plates were washed and incubated with OPD/H2 O2 substrate in 100 mM/L Citrate buffer, pH 5.0. The plate was read with a microtiter plate reader at a wavelength of 450 nm and when the maximum-binding control wells reached an absorbance of about 1.0, the final A450 were recorded for analysis. The data were analyzed using a macro written for use with the EXCEL™ spreadsheet program. The mean, standard deviation, and % CV were determined for duplicate concentrations. The mean A450 values were normalized to the mean of four maximum-binding controls (no competitor added)(B-MAX). The normalized values were subjected to a four parameter curve fit algorithm [Rodbard et al., Int. Atomic Energy.Agency, Vienna, pp 469 (1977)], plotted on a semi-log scale, and the computed IC50 and corresponding R^2 was reported. GRGDSP, a peptide fragment of fibrinogen, was included on each plate as a positive control.

In assay [2] the test system is osteoclastic activity. The note with it: cited from earlier work.
In assay [3] the test system is osteoclastic activity. The note with it: cited from earlier work. The source holds these as a separate data set.

As for `N=C(N)NCCCC(=O)NCC(=O)NC(CC(=O)O)c1cccnc1` (racemic) [Example 3, (±) β-[[2-[[4-[(aminoiminomethyl)amino]-1-oxobutyl]amino]-1-oxoethyl]amino]-3-pyridinepropanoic acid, bistrifluoroacetate salt], the IC50 in assay [1] stood at 23.1 nM. For `N=C(N)NCCCCCC(=O)NCC(=O)NC(CC(=O)O)c1cccnc1` (racemic) [Example 4, (±) β-[[2-[[6-[(aminoiminomethyl)amino]-1-oxohexyl]amino]-1-oxoethyl]amino]-3-pyridinepropanoic acid, bistrifluoroacetate salt], in assay [1], the IC50 worked out at 460 nM.

For the molecule `N=C(N)NCCCC(=O)NCCC(=O)NC(CC(=O)O)c1cccnc1` (racemic) [Example 5, (±) β-[[3-[[4-[(aminoiminomethyl)amino]-1-oxobutyl]amino]-1-oxopropyl]amino]-3-pyridinepropanoic acid, bistrifluoroacetate salt], the IC50 in assay [1] was 706 nM.

On to `N=C(N)NCC(CC(=O)NCC(=O)NC(CC(=O)O)c1cccnc1)c1ccccc1` (racemic) [Example 6, (±) β-[[2-[[4-[(aminoiminomethyl, amino]-1-oxo-3-phenylbutyl]amino]-1-oxoethyl]amino]-3-pyridinepropanoic acid, bistrifluoroacetate salt], for which the IC50 in assay [1] was 31.6 nM.

For `N=C(N)NCCCCC(=O)NCC(=O)NC(CC(=O)O)c1cccnc1` (stereo not drawn) [Example 1, β-[[2-[[5-[(aminoiminomethyl]amino]-1-oxopentyl]amino]-1-oxoethyl]amino]-3-pyridinepropanoic acid, bistrifluoroacetate salt], the IC50 in assay [1] is 9.4 nM. Consider echistatin, for which, in the assay on osteoclastic activity [2], the “inhibition of osteoclastic activity in vitro” value is “potent inhibitors”. Further, the “inhibition of osteoclastic activity in vivo” value in the assay with osteoclastic activity [3] is “potent inhibitors”.
